Measured values published in patent US10760052B2, “Method of inhibiting tau phosphorylation” (priority 2012, dated 2020).
Read-outs that look alike come from different tables or passages of the source.

Biological target: T1, mu opiate receptor (MOR) (Rattus norvegicus, UniProt P33535)
T1 construct: from tissue; host or cells: striatum (membrane preparation)
Type: biochemical

[1] = [35S]GTPγS binding to Gαo in striatal membranes, compound 0.1 μM
[2] = [35S]GTPγS binding to Gαo in striatal membranes, compound 1 μM
[3] = [35S]GTPγS binding to Gαo in striatal membranes, compound 1 μM plus 1 μM β-funaltrexamine (MOR antagonist)
[4] = 0.1 μM compound, striatal membranes, Series C-2
[5] = 1 μM compound + 1 μM β-FNA (selective MOR antagonist), Series C-2
[6] = 1 μM compound, striatal membranes, Series C-2

T1 sequence (P33535 whole entry): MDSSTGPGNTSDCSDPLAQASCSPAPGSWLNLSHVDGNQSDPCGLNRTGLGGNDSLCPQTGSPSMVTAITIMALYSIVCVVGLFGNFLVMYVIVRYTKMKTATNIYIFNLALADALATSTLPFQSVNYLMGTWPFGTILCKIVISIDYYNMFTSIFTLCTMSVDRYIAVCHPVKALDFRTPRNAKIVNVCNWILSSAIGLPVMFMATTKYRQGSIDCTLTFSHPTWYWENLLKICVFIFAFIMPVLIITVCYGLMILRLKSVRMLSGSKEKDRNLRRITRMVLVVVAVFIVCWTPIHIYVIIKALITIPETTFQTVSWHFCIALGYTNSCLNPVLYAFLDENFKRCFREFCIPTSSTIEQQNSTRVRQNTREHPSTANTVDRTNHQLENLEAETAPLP

## CC(=O)c1ccc(OCC(O)CN2CC(C)OC(C)C2)cc1 (stereo not drawn) [Compound A0044]
  % DAMGO (0.1 μM): 89.8%
  % DAMGO (1 μM): 75.8%
  % DAMGO + BFNA: 182.3%
[1]
  Concentration of FLNA-Binding Compound as Agonist 0.1 μM: 176.2%
[2]
  Concentration of FLNA-Binding Compound as Agonist 1 μM: 209.1%
[3]
  Concentration of FLNA-Binding Compound as Agonist 1 μM + BFNA: 134.7%

## COc1c2c(cc3c1C(CC(=O)CCc1ccc(O)cc1)[N+](C)(C)CC3)OCO2 (stereo not drawn) [Compound B0028]
  % DAMGO (0.1 μM): 103.5%
  % DAMGO (1 μM): 131.0%
  % DAMGO + BFNA: 125.3%
[1]
  Concentration of FLNA-Binding Compound as Agonist 0.1 μM: 199.1%
[2]
  Concentration of FLNA-Binding Compound as Agonist 1 μM: 357.7%
[3]
  Concentration of FLNA-Binding Compound as Agonist 1 μM + BFNA: 55.0%

## OC(COc1cccc(C(F)(F)F)c1)CN1CCc2ccccc2C1 (stereo not drawn) [Compound A0054]
  % DAMGO (0.1 μM): 44.4%
  % DAMGO (1 μM): 63.9%
  % DAMGO + BFNA: 348.9%
[1]
  Concentration of FLNA-Binding Compound as Agonist 0.1 μM: 74.9%
[2]
  Concentration of FLNA-Binding Compound as Agonist 1 μM: 159.2%
[3]
  Concentration of FLNA-Binding Compound as Agonist 1 μM + BFNA: 114.1%

## COc1ccc(OC)c(CCC(=O)CC2c3c(cc4c(c3OC)OCO4)CC[N+]2(C)C)c1 (stereo not drawn) [Compound B0044]
  % DAMGO (0.1 μM): 49.4%
  % DAMGO (1 μM): 66.9%
  % DAMGO + BFNA: 511.8%
[1]
  Concentration of FLNA-Binding Compound as Agonist 0.1 μM: 87.3%
[2]
  Concentration of FLNA-Binding Compound as Agonist 1 μM: 170.0%
[3]
  Concentration of FLNA-Binding Compound as Agonist 1 μM + BFNA: 134.6%

## COc1ccc(C(=O)N2CCOC23CCN(S(=O)(=O)c2ccc(OC)cc2)CC3)cc1 [Compound C0019]
  % DAMGO (0.1 μM): 59.1%
  % DAMGO (1 μM): 68.1%
  % DAMGO + BFNA: 80.4%
[1]
  Concentration of FLNA-Binding Compound as Agonist 0.1 μM: 104.4%
[2]
  Concentration of FLNA-Binding Compound as Agonist 1 μM: 176.6%
[3]
  Concentration of FLNA-Binding Compound as Agonist 1 μM + BFNA: 52.8%

## CC1CCCC(OCC(O)CN2CC(C)OC(C)C2)C1 (stereo not drawn) [Compound A0021]
  % DAMGO (0.1 μM): 79.8%
  % DAMGO (1 μM): 112.4%
  % DAMGO + BFNA: 34.9%
[1]
  Concentration of FLNA-Binding Compound as Agonist 0.1 μM: 133.3%
[2]
  Concentration of FLNA-Binding Compound as Agonist 1 μM: 275.3%
[3]
  Concentration of FLNA-Binding Compound as Agonist 1 μM + BFNA: 12.1%

## O=[N+]([O-])c1ccc(S(=O)(=O)N2CCC3(CC2)NCCS3)cc1 [Compound C0044]
  % DAMGO (0.1 μM): 102.8%
  % DAMGO (1 μM): 128.0%
  % DAMGO + BFNA: 356.0%
[4]
  [35S]GTPγS binding, FLNA-Binding Compound as Agonist at 0.1 μM: 173.7%
[5]
  [35S]GTPγS binding, FLNA-Binding Compound as Agonist at 1 μM + BFNA: 59.1%
[6]
  [35S]GTPγS binding, FLNA-Binding Compound as Agonist at 1 μM: 280.1%

## COc1ccccc1C(=O)CC1c2c(cc3c(c2OC)OCO3)CC[N+]1(C)C (stereo not drawn) [Compound B0025]
  % DAMGO (0.1 μM): 96.3%
  % DAMGO (1 μM): 86.8%
  % DAMGO + BFNA: 211.8%
[1]
  Concentration of FLNA-Binding Compound as Agonist 0.1 μM: 159.6%
[2]
  Concentration of FLNA-Binding Compound as Agonist 1 μM: 234.6%
[3]
  Concentration of FLNA-Binding Compound as Agonist 1 μM + BFNA: 137.7%

## C=CCN1CCC2(CC1)OCCN2S(=O)(=O)c1ccc(C(C)=O)cc1 [Compound C0096M]
  % DAMGO (0.1 μM): 105.9%
  % DAMGO (1 μM): 130.0%
  % DAMGO + BFNA: 577.7%
[4]
  [35S]GTPγS binding, FLNA-Binding Compound as Agonist at 0.1 μM: 186.4%
[5]
  [35S]GTPγS binding, FLNA-Binding Compound as Agonist at 1 μM + BFNA: 127.1%
[6]
  [35S]GTPγS binding, FLNA-Binding Compound as Agonist at 1 μM: 328.9%

## CCOc1ccc(C(=O)CC2c3c(cc4c(c3OC)OCO4)CC[N+]2(C)C)cc1F (stereo not drawn) [Compound B0020]
  % DAMGO (0.1 μM): 30.1%
  % DAMGO (1 μM): 68.0%
  % DAMGO + BFNA: 47.8%
[1]
  Concentration of FLNA-Binding Compound as Agonist 0.1 μM: 51.6%
[2]
  Concentration of FLNA-Binding Compound as Agonist 1 μM: 181.6%
[3]
  Concentration of FLNA-Binding Compound as Agonist 1 μM + BFNA: 24.9%

## CC(=O)c1ccc(S(=O)(=O)N2C(Cc3c[nH]cn3)C(=O)NC23CCNCC3)cc1 (stereo not drawn) [Compound C0119M]
  % DAMGO (0.1 μM): 71.9%
  % DAMGO (1 μM): 83.0%
  % DAMGO + BFNA: 89.3%
  [35S]GTPγS binding, FLNA-Binding Compound as Agonist at 0.1 μM: 105.7%
  [35S]GTPγS binding, FLNA-Binding Compound as Agonist at 1 μM: 167.8%
  [35S]GTPγS binding, FLNA-Binding Compound as Agonist at 1 μM + BFNA: 35.1%

## O=C(O)c1ccc(C(=O)N2CCC3(CC2)OCCN3S(=O)(=O)c2ccc(C(=O)O)cc2)cc1 [Compound C0021]
  % DAMGO (0.1 μM): 94.5%
  % DAMGO (1 μM): 87.8%
  % DAMGO + BFNA: 546.4%
[1]
  Concentration of FLNA-Binding Compound as Agonist 0.1 μM: 159.7%
[2]
  Concentration of FLNA-Binding Compound as Agonist 1 μM: 192.0%
[3]
  Concentration of FLNA-Binding Compound as Agonist 1 μM + BFNA: 90.7%

## COc1ccccc1CC(O)CC1c2c(cc3c(c2OC)OCO3)CCN1C (stereo not drawn) [Compound B0030]
  % DAMGO (0.1 μM): 62.6%
  % DAMGO (1 μM): 103.4%
  % DAMGO + BFNA: 172.9%
[1]
  Concentration of FLNA-Binding Compound as Agonist 0.1 μM: 107.2%
[2]
  Concentration of FLNA-Binding Compound as Agonist 1 μM: 276.1%
[3]
  Concentration of FLNA-Binding Compound as Agonist 1 μM + BFNA: 90.1%

## COc1ccc(CC(=O)CC2c3c(cc4c(c3OC)OCO4)CC[N+]2(C)C)c(OC)c1 (stereo not drawn) [Compound B0029]
  % DAMGO (0.1 μM): 89.4%
  % DAMGO (1 μM): 77.0%
  % DAMGO + BFNA: 40.1%
[1]
  Concentration of FLNA-Binding Compound as Agonist 0.1 μM: 171.9%
[2]
  Concentration of FLNA-Binding Compound as Agonist 1 μM: 210.3%
[3]
  Concentration of FLNA-Binding Compound as Agonist 1 μM + BFNA: 17.6%

## O=S(=O)(c1ccc(-c2ccccc2)cc1)N1CCC2(CC1)OCCN2S(=O)(=O)c1ccc(-c2ccccc2)cc1 [Compound C0010]
  % DAMGO (0.1 μM): 80.7%
  % DAMGO (1 μM): 114.9%
  % DAMGO + BFNA: 135.0%
[1]
  Concentration of FLNA-Binding Compound as Agonist 0.1 μM: 136.5%
[2]
  Concentration of FLNA-Binding Compound as Agonist 1 μM: 307.0%
[3]
  Concentration of FLNA-Binding Compound as Agonist 1 μM + BFNA: 89.1%

## COc1c2c(cc3c1C(CC(O)CCc1ccccc1)N(C)CC3)OCO2 (stereo not drawn) [Compound B0051]
  % DAMGO (0.1 μM): 68.4%
  % DAMGO (1 μM): 76.7%
  % DAMGO + BFNA: 263.9%
[1]
  Concentration of FLNA-Binding Compound as Agonist 0.1 μM: 115.6%
[2]
  Concentration of FLNA-Binding Compound as Agonist 1 μM: 167.9%
[3]
  Concentration of FLNA-Binding Compound as Agonist 1 μM + BFNA: 43.8%

## CC(=O)c1ccc(S(=O)(=O)N2CC(CN(C)C)OC23CCNCC3)cc1 (stereo not drawn) [Compound C0118M]
  % DAMGO (0.1 μM): 87.8%
  % DAMGO (1 μM): 105.4%
  % DAMGO + BFNA: 163.3%
  [35S]GTPγS binding, FLNA-Binding Compound as Agonist at 0.1 μM: 166.2%
  [35S]GTPγS binding, FLNA-Binding Compound as Agonist at 1 μM: 261.5%
  [35S]GTPγS binding, FLNA-Binding Compound as Agonist at 1 μM + BFNA: 79.2%

## CC1CN(CC(O)COc2cccc(C(F)(F)F)c2)CC(C)O1 (stereo not drawn) [Compound A0051]
  % DAMGO (0.1 μM): 148.0%
  % DAMGO (1 μM): 140.1%
  % DAMGO + BFNA: 286.3%
[1]
  Concentration of FLNA-Binding Compound as Agonist 0.1 μM: 290.4%
[2]
  Concentration of FLNA-Binding Compound as Agonist 1 μM: 386.6%
[3]
  Concentration of FLNA-Binding Compound as Agonist 1 μM + BFNA: 211.6%

## CC1CCC(C(C)C)C(OCC(O)CN2CCC(=O)C(C)C2)C1 (stereo not drawn) [Compound A0056]
  % DAMGO (0.1 μM): 74.1%
  % DAMGO (1 μM): 56.2%
  % DAMGO + BFNA: 43.6%
  Concentration of FLNA-Binding Compound as Agonist 0.1 μM: 115.6%
  Concentration of FLNA-Binding Compound as Agonist 1 μM: 129.6%
  Concentration of FLNA-Binding Compound as Agonist 1 μM + BFNA: 17.4%

## COc1ccc(S(=O)(=O)N2CCOC23CCN(C)CC3)cc1 [Compound C0088M]
  % DAMGO (0.1 μM): 160.5%
  % DAMGO (1 μM): 161.7%
  % DAMGO + BFNA: 513.3%
[4]
  [35S]GTPγS binding, FLNA-Binding Compound as Agonist at 0.1 μM: 276.3%
[5]
  [35S]GTPγS binding, FLNA-Binding Compound as Agonist at 1 μM + BFNA: 177.1%
[6]
  [35S]GTPγS binding, FLNA-Binding Compound as Agonist at 1 μM: 355.3%
